Source: article PMC8815882, “Screening the pandemic response box identified benzimidazole carbamates, Olorofim and ravuconazole as promising drug candidates for the treatment of eumycetoma” (PLoS Neglected Tropical Diseases, 2022)
Read-outs that look alike come from different tables or passages of the source.

System: M. mycetomatis genome strain MM55
Assay: CLSI M38-A2 based in vitro susceptibility screening (XTT or resazurin), growth at fixed concentration
Format: cell-based, Madurella mycetomatis
Conditions: Madurella mycetomatis; for Percent fungal survival at 100 µM: read-out: Percentage survival at 100um, 100 uM A (second replicate column)
[1] = mean of replicates, read-out: Percentage survival at 25um, 25 uM mean
[2] = replicate A, read-out: Percentage survival at 25um, 25 um A
[3] = replicate B, read-out: Percentage survival at 25um, 25 uM B
[4] = replicate C, read-out: Percentage survival at 25um, 25 uM C
[5] = mean of replicates, read-out: Percentage survival at 100um, 100 uM mean
[6] = replicate 1, read-out: Percentage survival at 100um, 100 uM A
[7] = replicate 2, read-out: Percentage survival at 100um, 100 uM A
[8] = replicate 3, read-out: Percentage survival at 100um, 100 uM A
[9] = mean of three replicates, read-out: Percentage survival at 25um, 25 uM mean
[10] = mean of three replicates, read-out: Percentage survival at 100um, 100 uM mean
[11] = replicate 1, read-out: Percentage survival at 100um, 100 uM A (first replicate column)
[12] = replicate 3, read-out: Percentage survival at 100um, 100 uM A (third replicate column)
[13] = mean of replicates, MM55, read-out: Percentage survival at 25um, 25 uM mean
[14] = replicate A, MM55, read-out: Percentage survival at 25um, 25 um A
[15] = replicate B, MM55, read-out: Percentage survival at 25um, 25 uM B
[16] = replicate C, MM55, read-out: Percentage survival at 25um, 25 uM C
[17] = mean of replicates, MM55, read-out: Percentage survival at 100um, 100 uM mean
[18] = replicate 1, MM55, read-out: Percentage survival at 100um, 100 uM A
[19] = replicate 2, MM55, read-out: Percentage survival at 100um, 100 uM A
[20] = replicate 3, MM55, read-out: Percentage survival at 100um, 100 uM A
[21] = first replicate column, read-out: Percentage survival at 100um, 100 uM A
[22] = second replicate column, read-out: Percentage survival at 100um, 100 uM A
[23] = third replicate column, read-out: Percentage survival at 100um, 100 uM A
[24] = mean of three, M. mycetomatis MM55, read-out: Percentage survival at 25um, 25 uM mean
[25] = replicate A, M. mycetomatis MM55, read-out: Percentage survival at 25um, 25 um A
[26] = replicate B, M. mycetomatis MM55, read-out: Percentage survival at 25um, 25 uM B
[27] = replicate C, M. mycetomatis MM55, read-out: Percentage survival at 25um, 25 uM C
[28] = mean of three, M. mycetomatis MM55, read-out: Percentage survival at 100um, 100 uM mean
[29] = replicate 1, M. mycetomatis MM55, read-out: Percentage survival at 100um, 100 uM A (first replicate column)
[30] = replicate 2, M. mycetomatis MM55
[31] = replicate 3, M. mycetomatis MM55, read-out: Percentage survival at 100um, 100 uM A (third replicate column)

Row | SMILES | activity at 25 µM [2] | activity at 25 µM [3] | activity at 25 µM [4] | activity at 25 µM [9] | activity at 100 µM [10] | activity at 100 µM [21] | activity at 100 µM [22] | activity at 100 µM [23] | further results
1 | CCCCOC(=O)Nc1cc2nc(C3CCCCC3)[nH]c2cc1N(CC)CC [MMV1578842] | 97.2% | 93.7% | 73.4% |  |  |  |  |  | activity at 25 µM [1]: 88.1%; activity at 100 µM [5]: 93.8%; activity at 100 µM [6]: 93.6%; activity at 100 µM [7]: 90.8%; activity at 100 µM [8]: 96.9%
2 | COc1ccc2c(c1)cc(CNC(=O)c1cc3ccccc3o1)n2CC(=O)O [MMV1581553] | 87.4% | 70.5% | 72.3% |  |  |  |  |  | activity at 25 µM (mean, read-out: Percentage survival at 25um, 25 uM mean): 76.7%; activity at 100 µM (mean, read-out: Percentage survival at 100um, 100 uM mean): 88.6%; activity at 100 µM (replicate (first column), read-out: Percentage survival at 100um, 100 uM A): 90%; activity at 100 µM (replicate (second column), read-out: Percentage survival at 100um, 100 uM A): 85%; activity at 100 µM (replicate (third column), read-out: Percentage survival at 100um, 100 uM A): 90.9%
3 | CCCCCCCCCN1C[C@@H](O)[C@H](O)[C@@H](O)[C@@H]1CO [MMV1593513] | 92% | 104% | 85.1% | 93.6% | 87.5% |  |  |  | activity at 100 µM [11]: 91.7%; Percent fungal survival at 100 µM (replicate 2): 84.5%; activity at 100 µM [12]: 86.2%
4 | C=CCc1cc(Cc2cnc(N)nc2N)cc(OC)c1O [MMV1580849] | 100% | 95.7% | 93.6% |  |  |  |  |  | activity at 25 µM [1]: 96.4%; activity at 100 µM [5]: 91.3%; activity at 100 µM [6]: 101%; activity at 100 µM [7]: 86.2%; activity at 100 µM [8]: 86.7%
5 | CCc1cc(O)c(Oc2ccc(C(N)=O)cc2F)cc1F [MMV1578564] | 145% | 87.1% | 85.3% | 106% | 80.4% |  |  |  | activity at 100 µM [11]: 82.2%; Percent fungal survival at 100 µM (replicate 2): 78.3%; activity at 100 µM [12]: 80.6%
6 | O=C(O)/C=C/C=C/c1cccc(Oc2cc(Cl)cc(Cl)c2)c1 [MMV1633963] |  |  |  |  |  |  |  |  | activity at 25 µM [13]: 44.9%; activity at 25 µM [14]: 58.7%; activity at 25 µM [15]: 58.6%; activity at 25 µM [16]: 17.4%; activity at 100 µM [17]: 7.42%; activity at 100 µM [18]: 7.5%; activity at 100 µM [19]: 5.34%; activity at 100 µM [20]: 9.43%
7 | O=C1[C@H](CC[C@H](O)c2ccc(F)cc2)[C@@H](c2ccc(O)cc2)N1c1ccc(F)cc1 [MMV1581377] | 82.7% | 93.7% | 99.2% | 91.9% | 43.8% | -3.71% | 57.6% | 77.4% | 
8 | CC#C[C@]1(O)CC[C@H]2[C@@H]3CCC4=CC(=O)CCC4=C3[C@@H](c3ccc(N(C)C)cc3)C[C@@]21C [MMV003297] | 90.2% | 94.9% | 76.5% | 87.2% | 80.3% | 84.5% | 82.6% | 73.8% | 
9 | CCc1cc(CCC(=O)Nc2ccccc2O)c(=O)[nH]c1C [MMV1782106] | 84.9% | 85.4% | 105% | 91.9% | 83.9% | 83.7% | 82.9% | 85.1% | 
10 | O=S(=O)(Nc1ccccc1)c1ccc(NC(=S)Nc2ccccc2)cc1 [MMV1578562] | 93.2% | 90.8% | 86.1% |  |  |  |  |  | activity at 25 µM [1]: 90%; activity at 100 µM [5]: 86%; activity at 100 µM [6]: 96.1%; activity at 100 µM [7]: 79.6%; activity at 100 µM [8]: 82.2%
11 | Cc1nc(-c2ccc(C3N(C)c4ccc(F)cc4C(=O)N3c3ccccc3)s2)cs1 (stereo not drawn) [MMV1582492] |  |  |  |  |  |  |  |  | activity at 25 µM [24]: 71%; activity at 25 µM [25]: 80%; activity at 25 µM [26]: 73.5%; activity at 25 µM [27]: 59.4%; activity at 100 µM [28]: 79.4%; activity at 100 µM [29]: 66.4%; Percent fungal survival at 100 µM [30]: 101%; activity at 100 µM [31]: 70.8%
12 | NC(=O)c1[nH]c2ccc(S(N)(=O)=O)cc2c1-c1ccccc1 [MMV1581556] | 70.3% | 68.8% | 78.1% | 72.4% | 70.1% |  |  |  | activity at 100 µM [11]: 77.5%; Percent fungal survival at 100 µM (replicate 2): 68%; activity at 100 µM [12]: 64.9%
13 | CCNC(=O)Nc1cc2c(-c3ccnc(C)c3)ccc(CNC(=O)OC)c2cn1 [MMV1634390] |  |  |  |  |  |  |  |  | activity at 25 µM [24]: 86.2%; activity at 25 µM [25]: 98.4%; activity at 25 µM [26]: 81%; activity at 25 µM [27]: 79.2%; activity at 100 µM [28]: 52.4%; activity at 100 µM [29]: 60.4%; Percent fungal survival at 100 µM [30]: 7.35%; activity at 100 µM [31]: 89.5%
14 | c1ccc(Cn2c(-c3ccccn3)nc3ccccc32)cc1 [MMV1578886] | 64.1% | 69.2% | 48.7% |  |  |  |  |  | activity at 25 µM [1]: 60.6%; activity at 100 µM [5]: 7.34%; activity at 100 µM [6]: 12%; activity at 100 µM [7]: 5.19%; activity at 100 µM [8]: 4.84%
15 | O=C(/C=C\n1cnc(-c2cc(C(F)(F)F)cc(C(F)(F)F)c2)n1)NNc1ccccn1 [MMV1580493] | 79.7% | 83.9% | 40.3% |  |  |  |  |  | activity at 25 µM [1]: 67.9%; activity at 100 µM [5]: 77.3%; activity at 100 µM [11]: 119%; Percent fungal survival at 100 µM (replicate 2): 80%; activity at 100 µM [12]: 32.4%
16 | O=C(/C=C/n1cnc(-c2cc(C(F)(F)F)cc(C(F)(F)F)c2)n1)NNc1cnccn1 [MMV1593517] | 63% | 118% | 90.3% | 90.4% | 102% | 102% | 111% | 95% | 
17 | O=S(=O)(Nc1ccc(O)cc1)c1cccc2cccnc12 [MMV251679] | 84.9% | 92.9% | 81.3% | 86.4% | 91.6% | 98.4% | 87.2% | 89.3% | 
18 | NC(=O)C(c1ccccc1)(c1ccccc1)[C@H]1CCCN(CCc2ccc3c(c2)CCO3)C1 [MMV1782412] |  |  |  |  |  |  |  |  | activity at 25 µM [13]: 101%; activity at 25 µM [14]: 130%; activity at 25 µM [15]: 101%; activity at 25 µM [16]: 70.7%; activity at 100 µM [17]: 68.7%; activity at 100 µM [18]: 67.1%; activity at 100 µM [19]: 68%; activity at 100 µM [20]: 71%
19 | N#Cc1cc([N+](=O)[O-])ccc1Oc1ccccc1Cl [MMV1580800] | 54.7% | 82.6% | 63.1% | 66.8% | 19.4% | 3.13% | 3.43% | 51.7% | 
20 | FC(F)(F)c1cc(C(F)(F)F)c2ccc3nc(-c4nnco4)cn3c2n1 [MMV690555] |  |  |  |  |  |  |  |  | activity at 25 µM [13]: 91.6%; activity at 25 µM [14]: 100%; activity at 25 µM [15]: 96.8%; activity at 25 µM [16]: 77.9%; activity at 100 µM [17]: 81.1%; activity at 100 µM [18]: 87%; activity at 100 µM [19]: 83.1%; activity at 100 µM [20]: 73.1%
21 | CCc1c(OCC2CCC2)c2cc(F)ccc2[nH]c1=O [MMV1634395] | 59.4% | 71.5% | 70.4% | 67.1% | 55.6% | 62.9% | 45.1% | 58.8% | 
